Values quoted from earlier work as cited in patent US20170000414A1, “Use of Blood Flow Parameters to Monitor or Control the Dosing of Anti-Platelet Agents” (RHEOVECTOR, LLC, priority 2014, published 2017).

Key:
[1] = aspirin 81 mg; healthy individuals
[2] = 18,624 patients having prior acute coronary syndrome

CC(=O)Oc1ccccc1C(=O)O [Aspirin, acetylsalicylic acid]
effect on blood viscosity [1]: no significant effect

CCCSc1nc(N[C@@H]2C[C@H]2c2ccc(F)c(F)c2)c2nnn([C@@H]3C[C@H](OCCO)[C@@H](O)[C@H]3O)c2n1 [Ticagrelor]
rate of cardiovascular disease (CVD) events and death compared with clopidogrel [2]: reduce significantly

COC(=O)[C@H](c1ccccc1Cl)N1CCc2sccc2C1 [clopidogrel]
reducing CVD events or death, compared with aspirin 325 mg (clopidogrel 75 mg, 19,185 patients with atherosclerosis (symptomatic PAD, recent ischemic stroke or MI)): more effective | relative risk reduction (group entering the trial with symptomatic PAD, p=0.0028): 23.8% | reduction in MI, stroke or cardiovascular death rates (patients who entered the trial with an ischemic stroke or MI): no reduction
